The target in data set [1] is CB2 receptor (Homo sapiens, UniProt P34972). Description: Radioligand.
The target in data set [2] is CB1 receptor (Homo sapiens, UniProt P21554). Description: Radioligand.
Data set [3] addresses AChE EC 3.1.1.7 (Homo sapiens, UniProt P22303). Description: Spectrophotometric AChE inhibition assay. It counts as biochemical.
The test system of data set [4] is rhinovirus 2 (HRV-2). Description: Cytopathic effect. It counts as cell-based, human rhinovirus. As to conditions: for IC50: read-out: HRV (experimental result, activity class); for antiviral activity against HRV-2 (in words): HeLa cells, non-cytotoxic concentrations.
Data set [5] can be described thus: Cytotoxicity on HeLa cell monolayers. Format: cell-based. The settings on record: human, confluent HeLa cell monolayers.
Data set [6] has as its system HeLa cell monolayers. Briefly: Cytotoxicity on HeLa cell monolayers. Format: cell-based. The settings on record: HeLa cells; for CC50: 72 h incubation, two independent tests.
Where [7] appears, read: hCB2 Ki ± SD, displacement of [3H]CP-55,940, Cheng-Prusoff.
[8] abbreviates: AChE (experimental result, activity class), Table 5 overview.
Where [9] appears, read: AChE IC50 ± SD, in vitro, modified Ellman's method, 96-well microplate, n = 4.
[10] abbreviates: CB2 (experimental result, activity class), Table 5 overview.
Where [11] appears, read: read-out: AChE (experimental result, activity class), Table 5 overview.
Where [12] appears, read: read-out: CB2 (experimental result, activity class), Table 5 overview.
Setting [13] is: read-out: hCB2 Ki ± SD, displacement of [3H]CP-55,940, Cheng-Prusoff.

Data on 18 molecules can be found in article PMC3525952 (Planta medica, 2008).

Converted amounts (≈) assume the structure as drawn. Read-outs that look alike come from different tables or passages of the source.

Sequence of AChE EC 3.1.1.7 (P22303 32-614): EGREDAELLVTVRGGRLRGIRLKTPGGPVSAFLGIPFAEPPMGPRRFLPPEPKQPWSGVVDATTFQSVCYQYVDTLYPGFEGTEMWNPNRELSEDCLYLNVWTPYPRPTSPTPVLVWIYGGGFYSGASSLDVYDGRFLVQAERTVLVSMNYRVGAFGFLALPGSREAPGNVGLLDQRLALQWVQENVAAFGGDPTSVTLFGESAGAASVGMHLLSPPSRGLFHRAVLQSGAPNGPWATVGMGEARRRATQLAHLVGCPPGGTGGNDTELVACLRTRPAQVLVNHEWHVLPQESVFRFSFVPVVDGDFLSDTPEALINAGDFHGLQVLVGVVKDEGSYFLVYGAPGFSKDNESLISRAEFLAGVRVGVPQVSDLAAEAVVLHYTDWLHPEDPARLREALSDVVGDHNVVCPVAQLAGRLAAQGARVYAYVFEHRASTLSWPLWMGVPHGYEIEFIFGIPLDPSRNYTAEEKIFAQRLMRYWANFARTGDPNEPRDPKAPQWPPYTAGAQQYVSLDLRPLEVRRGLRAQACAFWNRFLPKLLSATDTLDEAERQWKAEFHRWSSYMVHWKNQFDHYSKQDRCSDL
Sequence of CB2 receptor (P34972 whole entry): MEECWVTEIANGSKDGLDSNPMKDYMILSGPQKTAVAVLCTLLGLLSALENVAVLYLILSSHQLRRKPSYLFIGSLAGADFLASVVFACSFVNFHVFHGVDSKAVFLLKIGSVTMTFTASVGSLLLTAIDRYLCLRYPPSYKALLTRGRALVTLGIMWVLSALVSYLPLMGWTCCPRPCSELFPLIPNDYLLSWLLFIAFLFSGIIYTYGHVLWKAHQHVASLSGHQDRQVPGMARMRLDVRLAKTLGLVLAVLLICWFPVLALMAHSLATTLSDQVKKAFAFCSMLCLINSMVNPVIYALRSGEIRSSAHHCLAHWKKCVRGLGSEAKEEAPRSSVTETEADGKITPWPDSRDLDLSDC
Sequence of CB1 receptor (P21554 whole entry): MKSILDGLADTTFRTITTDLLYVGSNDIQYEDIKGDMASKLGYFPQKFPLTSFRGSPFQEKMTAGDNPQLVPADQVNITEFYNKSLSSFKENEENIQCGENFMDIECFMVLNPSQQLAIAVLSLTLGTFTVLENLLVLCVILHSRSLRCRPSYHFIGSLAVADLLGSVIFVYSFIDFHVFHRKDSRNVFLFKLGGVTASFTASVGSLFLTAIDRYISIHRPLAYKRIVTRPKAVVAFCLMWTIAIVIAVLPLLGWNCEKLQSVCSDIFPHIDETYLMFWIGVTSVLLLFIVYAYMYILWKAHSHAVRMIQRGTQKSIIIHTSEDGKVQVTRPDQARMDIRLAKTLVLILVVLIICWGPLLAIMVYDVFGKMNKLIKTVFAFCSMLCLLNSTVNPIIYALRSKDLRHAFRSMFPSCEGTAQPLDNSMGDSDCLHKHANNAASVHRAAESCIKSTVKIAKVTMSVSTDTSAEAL

On to `CCCCCc1cc(O)c2c(c1)OC(C)(C)c1ccc(C)cc1-2` [Cannabinol, reference compound], for which the values for the Ki in data set [1] (setting [7]) and in data set [2] were 0.12 ± 0.01 µM and 0.42 ± 0.13 µM, respectively.
For `COc1cc2c(c(O)c1OC)c(=O)c1ccccc1n2C` [Compound 1, arborinine], the “AChE inhibiting activity (in words)” value in data set [3] is given as “strongest AChE inhibiting activity”. The IC50 was less than 50 µM in data set [3] (setting [8]); 34.7 ± 7.1 µM in data set [3] (setting [9]); less than 10 µM in data set [4] (Enterovirus, HRV2, HeLa). Besides, the “antiviral activity against HRV-2 (in words)” value (“antiviral activity” below) in data set [4] is given as “most active antiviral constituents”. The Ki in data set [1] (setting [10]), in data set [1] (setting [7]) and in data set [2] was more than 100 µM each time. Besides, in data set [5], the CC50 at 72 h was more than 50 µg/mL.
As to `COc1cc2cc(Oc3ccc4ccc(=O)oc4c3)c(=O)oc2cc1OC` [Compound 2, daphnoretin methyl ether], the IC50 is more than 500 µM in data set [3] (setting [11]) and 20 to 100 µM in data set [4] (Table 5 overview). The “antiviral activity” value in data set [4] was “Weak, but significant and dose-dependent antiviral activities”. In addition, the CC50 in data set [6] was more than 50 µg/mL.
As for `C=CC(C)(C)c1cc2cc3c(cc2oc1=O)OC(C(C)(C)OC(C)=O)C3` (centres unmarked) [Compound 3, rutamarin], the IC50 in data set [3] (setting [8]) and in data set [3] (setting [9]) was more than 500 µM throughout. In data set [4] (Table 5 overview), the “HRV (experimental result, activity class)” value is “cytotoxic”. Further, the Ki in data set [1] (setting [10]) was less than 10 µM; in data set [1] (CB2 Ki, displacement of [3H]CP-55,940), 7.41 µM; in data set [1] (setting [7]), 7.4 ± 0.6 µM; in data set [2] it was more than 100 µM. Besides, the “binding affinity to the CB receptors (in words)” value in data set [1] (radioligand displacement assay) is listed as “selective affinity to the CB2 receptor”. The same molecule returned a CC50 at 72 h in data set [5] of 0.9 µg/mL (≈ 2.53 µM). Besides, the “cytotoxicity (in words)” value in data set [6] is recorded as “pronounced cytotoxicity”.
Regarding `CC(C)=CCOc1c2ccoc2cc2oc(=O)ccc12` [Compound 4, isoimperatorine], the IC50 in data set [3] (setting [8]) and in data set [3] (setting [9]) was more than 500 µM in each case.
For `O=c1ccc2cc3ccoc3cc2o1` [Compound 5, psoralen], the IC50 in data set [3] (setting [8]) and in data set [3] (setting [9]) was more than 500 µM in each case.
Take `COc1c2ccoc2cc2oc(=O)ccc12` [Compound 6, bergapten]: the IC50 in data set [3] (setting [8]) and in data set [3] (setting [9]) was more than 500 µM each time.
As for `COc1c2occc2cc2ccc(=O)oc12` [Compound 7, 8-methoxy psoralene], the IC50 in data set [3] (setting [8]) and in data set [3] (setting [9]) was more than 500 µM each time.
Take `Cn1c2c(c(=O)c3ccccc31)CC(O)C(C)(C)O2` (centres unmarked) [Compound 8, S-ribalinine]: the IC50 in data set [3] (setting [11]) is more than 500 µM; in data set [4] (Table 5 overview) it was 20 to 100 µM. The “antiviral activity” value in data set [4] is “Weak, but significant and dose-dependent antiviral activities”. In addition, the Ki in data set [1] (setting [12]) and in data set [1] (setting [13]) was more than 100 µM each time. Also, the CC50 in data set [6] is more than 50 µg/mL.
Consider `COc1c(C[C@@H](O)C(C)(C)O)c(=O)n(C)c2ccccc12` [Compound 10, (−)-edulinine], for which, in data set [3] (setting [11]), the IC50 is more than 500 µM. The Ki in data set [1] (setting [12]) and in data set [1] (setting [13]) was more than 100 µM throughout.
`O=c1cc(-c2ccc3c(c2)OCO3)[nH]c2ccccc12` [Compound 11, norgraveoline]: in data set [3], the “AChE inhibiting activity (in words)” value is reported as “Modest effects”. The IC50 was 50 to 200 µM in data set [3] (setting [11]) and more than 100 µM in data set [4] (Table 5 overview). This molecule gave a CC50 in data set [6] of 32.2 µg/mL (≈ 121 µM).
Turning to `COc1ccc2ccc(=O)oc2c1` [Compound 12, 7-methoxycoumarin], the IC50 in data set [3] (setting [8]) and in data set [3] (setting [9]) was more than 500 µM each time.
For the molecule `COc1cc2ccc(=O)oc2c(OC)c1OC` [Compound 13, 6,7,8-trimethoxycoumarin], the “AChE inhibiting activity (in words)” value in data set [3] was “Modest effects”. Further, the IC50 in data set [3] (setting [8]) is 200 to 500 µM; in data set [3] (setting [9]), 396 ± 68.5 µM; in data set [4] (Enterovirus, HRV2, HeLa), 10 to 20 µM. Further, in data set [4], the “antiviral activity” value is listed as “most active antiviral constituents”. In data set [5], this molecule returned a CC50 at 72 h of more than 50 µg/mL.
As for `COC(=O)CC(O)c1cc(OC)c(O)c(OC)c1` (centres unmarked) [Compound 14, Methyl 3-hydroxy-3-(4-hydroxy-3,5-dimethoxyphenyl)propanoate], the IC50 in data set [3] (setting [9]) was more than 500 µM; in data set [3] (setting [11]), more than 500 µM; in data set [4] (Enterovirus, HRV2, HeLa), more than 100 µM. The CC50 at 72 h in data set [5] was more than 50 µg/mL.
`COC(=O)C1OC1c1cc(OC)c(O)c(OC)c1` (centres unmarked) [Compound 15, Methyl 3-(4-hydroxy-3,5-dimethoxyphenyl)oxirane-2-carboxylate] came in with an IC50 in data set [3] (setting [9]) of more than 500 µM. Besides, in data set [5], the CC50 at 72 h is more than 50 µg/mL.
For `COC(=O)CCc1cc2ccoc2c(OC)c1O` [Compound 16, Methyl 3-(6-hydroxy-7-methoxybenzofuran-5-yl)propanoate], the IC50 is more than 500 µM in data set [3] (setting [9]); more than 500 µM in data set [3] (setting [11]); 20 to 100 µM in data set [4] (Enterovirus, HRV2, HeLa). Further, the “antiviral activity” value in data set [4] is “Weak, but significant and dose-dependent antiviral activities”. This molecule showed a CC50 at 72 h in data set [5] of more than 50 µg/mL.
Molecule `Cc1cc(CCCOc2c(C)cc(-c3noc(C(F)(F)F)n3)cc2C)on1` [Pleconaril, reference compound] gave a CC50 at 72 h in data set [5] of 12.6 µg/mL (≈ 33 µM).
isoplatydesmin [Compound 9]: in data set [3], the “AChE inhibiting activity (in words)” value is “Modest effects”. Moreover, in data set [1] (setting [13]), the Ki was more than 100 µM.

Broadly, the CC50 is the concentration at which the toxic effect on the cells reaches its halfway point. A high value points to lower toxicity to the cells.
